Laboratory results: ChEMBL document CHEMBL1157539, “Thousands of chemical starting points for antimalarial lead identification” (Nature, 2010)

What follows are compounds tested on Plasmodium falciparum (assay: GSK_TCMDC: Inhibition of Plasmodium falciparum 3D7 in whole erythrocytes, using parasite LDH activity as an index of growth.). Conditions: not given.
Format: functional, organism-based

Compound	XC50 [nM]
C#CCOc1ccc(CC(C)NCC(O)c2cccc(C(F)(F)F)c2)cc1 (stereo not drawn)	1190

Same assay, conditions: Plasmodium falciparum, 3D7

Compound	XC50 [nM]
Cc1ccc(NC(C)C(=O)Nc2ccccc2)cc1S(=O)(=O)N1CCCCCC1 (stereo not drawn)	62.4
Cc1nc(C)c(-c2ccc(Oc3cccc(OC(F)(F)F)c3)cc2)c(O)c1Br	17.1
Clc1ccc(-c2cc(-c3csc(Nc4ccncc4)n3)on2)cc1	133
CCC(CO)NCC(O)Cn1c2ccc(Br)cc2c2cc(Br)ccc21 (stereo not drawn)	783
CC(Cc1ccc(OCCN2CCN(c3ccccc3)CC2)cc1)NCC(O)c1cccc(Cl)c1F (stereo not drawn)	873
COc1ccc(Nc2nc(NC3CCN(Cc4ccccc4)CC3)cc(-c3ccncc3)n2)cc1	992
CCc1ccc(C(=O)NC(=O)c2ccccc2O)cc1	610
CC(C)CC(NC(=O)c1ccc(F)cc1)C(=O)N[C@H](/C=N/N1CCNC1=O)CC(C)C (stereo partly drawn)	1030
OCCC1CCN(Cc2ccc(-c3ccc(-c4nc5ccccc5[nH]4)cc3)cc2)CC1	768
CCCCCCCCN1CCCN(C(=O)c2cccc(NC(=O)Nc3ccc4ccccc4c3)c2)CC1	762
CCn1c(Sc2ccc(C#N)c([N+](=O)[O-])c2)nnc1-c1cccc(Cl)c1	446
CC(=O)c1ccc(N2CCN(CCC3(c4ccc(Cl)c(Cl)c4)COCN(C(=O)c4ccccc4)C3)CC2)cc1 (stereo not drawn)	925
Cc1cc(N2Cc3ccccc3C2)nc(Nc2ccc(S(=O)(=O)N3CCOCC3)cc2)n1	1110
CCN1CCN(Cc2c(O)ccc3c(=O)c(Oc4cc(C)cc(C)c4)c(C(F)(F)F)oc23)CC1	773
CCCCOC(=O)C1=C(C)NC2=C(C(=O)CCC2)C1c1ccc(OC)c(Br)c1 (stereo not drawn)	603
CCn1ccc2c(N3CCCCS3(=O)=O)cc(C(=O)N[C@@H](Cc3ccccc3)[C@H](O)CNC(C)(C)CCCC(C)C)cc21	418
COc1ccc(CN(C)CCCOc2ccc(NC(=O)c3cccc4c(=O)c5cccc(F)c5[nH]c34)cc2)cc1OC	637
CCOC(=O)N1CCN(CCCCNc2c3ccc(Cl)cc3nc3ccc(OC)cc23)CC1	121
COc1ccccc1CCNc1nc(C)cc(N[C@@H](CC(C)C)C(=O)Nc2ccccc2)n1	1280
CCc1ccc(OCc2ccccc2C(=O)Nc2ccc3nc(C)cc(N)c3c2)cc1	203
COc1ccc(Nc2nccc(N3CCC(NC(=O)Nc4cccc(OC)c4)C3)n2)cc1 (stereo not drawn)	424
Cc1ccc(Oc2ncccc2C(=O)Nc2cccc3cccnc23)c(C)c1	225
CCOc1cc(NCCSCc2nc[nH]c2C)nc2ccccc12	792
O=C1COc2cc(Cl)c(CNC3CCN(CCc4ccnc5c(F)cc(F)cc45)CC3)nc2N1	797
Cc1cc(C)nc(-n2[nH]c(C)c(Cc3ccc(C(C)(C)C)cc3)c2=O)n1	1010

Compound	XC50 [nM]
COc1ccc2c(NN=Cc3ccc(Cl)cc3)ccnc2c1	865
CC(C)Cn1c(Sc2ccc(C#N)c([N+](=O)[O-])c2)nnc1-c1ccccc1Cl	901
O=c1cc(NCCCNCc2ccc(Cl)c(Cl)c2)[nH]c2ccc(C(F)(F)F)cc12	524
COc1cc(C=NNc2cc(C)nc3c(OC)cccc23)cc(OC)c1OC	887
COc1ccc(C2C(C(=O)OC3CCCCC3)=C(C)NC3=C2C(=O)CCC3)cc1Br (stereo not drawn)	579
Cc1cccc2nc(-c3cccc(-c4cccc(NC(=O)Nc5cccc(C#N)c5)c4)c3)[nH]c12	104
CCc1cc2c(O)c([N+](=O)[O-])c(=O)oc2cc1OCCCCCOc1cc2oc(=O)c([N+](=O)[O-])c(O)c2cc1CC	257
C=C[C@]1(C)C[C@@H](OC(=O)NC(=O)C2CCN(C(=O)CSc3ccccc3)CC2)[C@]2(C)[C@H](C)CC[C@]3(CCC(=O)[C@H]32)[C@@H](C)[C@@H]1O	1010
CN(C)CCN1CCN(Cc2ccc(-c3cccc(-c4nc5ccccc5[nH]4)c3)cc2)CC1	199
CC(Sc1nc2sccc2c(=O)n1C)C(=O)Nc1ccc2c(c1)OCO2 (stereo not drawn)	1040
CCCn1cnc2cc(C(=O)Nc3ccc(-c4cccc(CN(C)C)c4)cc3)ccc2c1=O	928
CCN(CC(C)O)C(=O)c1ccc(-c2cccc(-c3nc4cccc(C)c4[nH]3)c2)cc1 (stereo not drawn)	639
COc1ccc(Nc2nc(NCc3ccco3)c3ccccc3n2)cc1	740
CC[C@H]1CN2CC[C@@H]1C[C@H]2[C@H](O)c1cc(N2CCSCC2)nc2ccc(OC)cc12	199
CC[C@H](C)CNC(=O)c1cncc(-c2cccc(CNC3Cc4ccccc4C3)c2)c1	591
COc1cccc(Nc2nccc(NCC(O)c3cccc(C(F)(F)F)c3)n2)c1 (stereo not drawn)	702
O=c1cc(NCCCNCc2cc3c(Cl)cc(Cl)cc3[nH]2)[nH]c2ccccc12	862
CC(=O)Nc1cccc(Nc2nccc(Nc3ccc(Oc4ccccc4)cc3)n2)c1	745
N#CCCN1CCN(Cc2ccc(-c3cccc(-c4nc5cc(F)ccc5[nH]4)c3)cc2)CC1	972
COCCNCc1ccc(-c2ccccc2CNC2CCN(Cc3ccccc3)CC2)cc1	975
CNCCNCc1ccc(-c2cccc(-c3nc4cc(C(F)(F)F)ccc4[nH]3)c2)cc1	628
CCCCCOc1ccc(C(O)C(CN2CCCCC2)c2ccccc2)cc1 (stereo not drawn)	877
CN(C)C(CNc1ncnc2cc(Cl)ccc12)Cc1ccccc1 (stereo not drawn)	872
COc1ccc(C#Cc2ccc(-c3c(C)[nH]c(C)c(Cl)c3=O)cc2)cc1	66.5
CCC[C@@H]([C@@H](CC1CCCCC1)C(=O)N[C@@H](CCOC(=O)NCC)C(=O)Nc1nccs1)N(O)C=O	81.8

Compound	XC50 [nM]
Cc1ccc(C2=NNC3(S2)C(=O)Nc2ccc(C)cc23)cc1 (stereo not drawn)	1020
O=S(=O)(NCCN1CCCC1)c1ccc(-c2cccc(CNC3Cc4ccccc4C3)c2)cc1	618
C=CCc1cc(Cc2cnc(N)nc2N)c2ccc(C)nc2c1O	1040
O=C(Nc1ccc(-c2ccccc2)cc1)Nc1ccc2c(c1)CCNCC2	348
Cc1ccc(S(=O)(=O)N(CCCN2CCN(C)CC2)Cc2csc(-c3ccc(CNCc4ccccc4)cc3)n2)cc1	841
O=C(Nc1ccc(-c2ccc(-c3nc4cc(C(F)(F)F)ccc4[nH]3)cc2)cc1)Nc1ccc(F)c(F)c1F	217
Cc1cc(-c2ccc3c(c2)CCN(CCC2CCC(NC(=O)/C=C/c4ccccc4F)CC2)CC3)on1 (stereo not drawn)	811
C#CCOc1ccc(CC(C)NCC(O)c2cccc(C(F)(F)F)c2)cc1 (stereo not drawn)	1030
Cc1noc(-c2ccc(O)cc2O)c1-c1ccc2c(c1)OCCCO2	892
Cc1cc(=NN=Cc2cccc(Cl)c2)c2cc(F)ccc2[nH]1	759
N#Cc1ccc2c(c1)CCN(CCC1CCC(NC(=O)Nc3ccnc4ccccc34)CC1)C2 (stereo not drawn)	377
COc1ccc(NC(=O)/C=C/c2ccccc2Cl)cc1OCCN1CCC(NCc2cccnc2)CC1	761
COCCNCc1ccc(-c2cccc(CN(C(=O)CCC3CCCC3)C3CCN(Cc4ccccc4)CC3)c2)cc1	938
Cc1nn(C)c(C)c1CN(Cc1nc(-c2cccc(Oc3ccccc3)c2)oc1C)C1CC1	392
Cc1ccccc1CNc1noc(-c2c(-c3ccccc3)noc2C)n1	902
N#Cc1cncc(-c2nc3c(N4CCN(c5cnccn5)CC4)cccc3n2CCNCc2ccccc2)c1	912
Cc1nnc2c(NC(=O)NC3CCCC3)cc3cc(-c4ccc(CN5CCN(C)CC5)cc4)ccc3n12	1020
CN1CCN(CCCN(Cc2ccc(-c3cccc(CNC4CCCC4)c3)cc2)C(=O)/C=C/c2ccccc2)CC1	1330
NCc1cccc(-c2ccc3ccnc(N)c3c2)c1	168
COc1ccc2nccc(N3CCC(SCCNCc4ccc5c(n4)NC(=O)CO5)C3)c2n1 (stereo not drawn)	801
O=C(Cn1c(SCc2cccc(F)c2F)cc(=O)c2ccccc21)N(CCn1ccnc1)Cc1ccc(-c2ccc(C(F)(F)F)cc2)cc1	770
Cc1ccc(O)c(-c2cc(C(=O)Nc3ccc(S(=O)(=O)N4CCCC(C)C4)cc3)[nH]n2)c1 (stereo not drawn)	707
Cc1cc(OCCCN2CCC(NS(=O)(=O)c3ccc(Cl)c(Cl)c3)C2)c2ccccc2n1 (stereo not drawn)	1050
Cc1[nH]n(-c2cccc(Cl)c2)c(=O)c1-c1ccc(Cl)cc1	929
Cc1cc(N[C@@H](Cc2ccccc2)C(=O)Nc2ccccc2)nc(NCCc2cccnc2)n1	1340

Compound	XC50 [nM]
c1ccc(CNCc2cccc(-c3cccc(-c4nc5ccccc5[nH]4)c3)c2)cc1	569
CC(C)(C)c1ccc(NC(=O)c2ccc(CN3CCCN(Cc4ccsc4)CC3)cc2)cc1	716
Cc1cccc2nc(-c3ccc(-c4ccc(CN5CCN(C6CCN(C)CC6)CC5)cc4)s3)[nH]c12	145
CN1CCN(C(C(=O)NCc2cc(Cl)cc(Cl)c2)c2ccccc2-c2ccsc2)CC1 (stereo not drawn)	936
CN(C)CCNC(=O)N1CCCN(c2ncnc3cc(-c4ccc(Cl)cc4)sc23)CC1	1020
CCc1nc2c(N)nc(N)nc2nc1-c1ccc(OC)cc1	1200
CCCC(=O)NC(NC(=S)Nc1ccc([N+](=O)[O-])cc1)C(Cl)(Cl)Cl (stereo not drawn)	1030
CCCCCCCc1ccc(-c2c(C)[nH]c(C)c(Cl)c2=O)cn1	361
NCC(=O)c1cc2c(cc1N)OCCO2	1360
CC(=O)c1ccc(NC(=O)NNC(=O)c2ccc(CCN3CCC(c4nc(COCC(F)(F)F)c(-c5ccc(F)cc5)o4)CC3)cc2)cc1	835
CCC(C)CNC(=O)CN1CN(c2ccccc2)C2(CCN(C(=O)c3ccc(Br)cc3)CC2)C1=O (stereo not drawn)	1070
COc1ccc(Cn2ncc3c4c(N)nc(N)nc4ccc32)cc1OC	3.2
CC[C@H]1CN2CC[C@H]1C[C@H]2[C@H](OC(=O)c1ccccc1)c1cc(C#N)nc2ccc(OC)cc12	915
CC(=NNC(=N)N)c1ccc2ccc3ccccc3c2c1	892
O=C(NCc1cccc(C(F)(F)F)c1)c1ccc(CNC(=O)c2ccc(O)c(-c3ccc(Cl)c(Cl)c3)c2)cc1	843
COc1ccc2nccc(N(C)CC3(O)CCC(NCc4ccc5c(n4)NC(=O)CS5)CC3)c2n1 (stereo not drawn)	700
COc1ccc2ncc(F)c(CCN3CC(O)C(CNCc4ccc5c(n4)NC(=O)CS5)C3)c2c1 (stereo not drawn)	784
O=C(/C=C/c1ccc(Cl)c(Cl)c1)NCCCCCN1CCC(C(=O)Nc2ccc(Cl)c(Cl)c2)CC1	637
COc1ccc(N2CCN(CCCCNC(=O)c3ccc(NC(=O)c4ccc(Cl)cc4)cc3)CC2)c(C)c1	758
CCN1CCN(Cc2ccc3nc(-c4cc(C)n(Cc5cc(Cl)ccc5OCc5ccccc5)n4)[nH]c3c2)CC1	770
CCOc1cc2ncnc(Nc3ccc(OCc4ccccc4Br)c(OC)c3)c2cc1OCC	467
O=C(Nc1ccccc1Oc1ccccc1)NC1CCN(c2ccnc3cc(Cl)ccc23)C1 (stereo not drawn)	167
